# Measured values from patent publication US9278962B2 (Cytokinetics, Inc., priority 2011, dated 2016).
# Tested on: rabbit skeletal myofibrils (approximately 90% fast fibers)
# Assay: Activation of fast skeletal myofibrils (PUMA coupled-enzyme ATPase assay, AC1.4)
# Assay type: biochemical
# Settings: concentration at which the compound increased enzymatic activity by 40%, calcium at pCa25
# Description: Rabbit skeletal myofibrils were prepared based upon the method of Herrmann et al. (Biochem. 32(28):7255-7263(1993). Myofibrils were prepared from rabbit psoas muscle purchased from Pel-Freez Biologicals (Arkansas) within 2 days of ordering, stored on ice. Minced muscle was homogenized in 10 volumes of ice-cold “standard” buffer (50 mM Tris, pH 7.4, 0.1 M potassium acetate, 5 mM KCl, 2 mM DTT, 0.2 mM PMSF, 10 μM leupeptin, 5 μM pepstatin, and 0.5 mM sodium azide) containing 5 mM EDTA and 0.5% Triton X-100 using an Omni-Macro homogenizer. Myofibrils were recovered by low speed centrifugation (3000 rpm for 10 minutes) and washed 2 times in the Triton X-100 containing buffer to ensure removal of cellular membrane. Following the Triton washes, myofibrils were washed 3 times in “standard” buffer containing 2 mM magnesium acetate. A final wash in assay buffer (12 mM PIPES, pH 6.8, 60 mM KCl, 1 mM DTT) was performed and brought to 10% sucrose for flash freezing in liquid nitrogen and storage at −80° C.
# Fast fiber activators were identified by measuring the enzymatic activity of muscle myofibril preparations using the proprietary PUMA™ (see, e.g., U.S. Pat. Nos. 6,410,254, 6,743,599, 7,202,051, and 7,378,254) assay system. Myofibril preparations consisted of rabbit skeletal muscle (approximately 90% fast fibers) that had been mechanically homogenized and washed with a detergent (triton X-100) to remove cellular membranes. This preparation retained all of the sarcomeric components in a native conformation and the enzymatic activity was still regulated by calcium. Compounds were tested using a myofibril suspension and a level of calcium sufficient to increase enzymatic activity of the myofibrils to 25% of their maximal rate (termed pCa25). Enzymatic activity was tracked via a pyruvate kinase and lactate dehydrogenase-coupled enzyme system. This assay regenerates myosin-produced ADP into ATP by oxidizing NADH, producing an absorbance change at 340 nm. The buffering system was 12 mM Pipes, 2 mM MgCl2, 1 mM DTT at pH 6.8 (PM12 buffer).
# Using procedures similar to those described herein, utilizing reagents and intermediates commercially available (e.g., Sigma-Aldrich) or readily synthesized by one of skill in the art, the compounds in Table 2, Table 3, Table 4 and Table 5 were synthesized, characterized and tested. AC1.4 values were determined according to the procedure described in Example 6, and the reported median AC1.4 values are as follows: A=<1 uM; B=1-10 uM; C=10-20 uM; D=>20 uM.
Compound,Mean AC1.4 (Table 2),further results
"COc1ccc(CCNc2nc(Cc3ccc(C)cc3)ns2)cc1 [[2-(4-methoxyphenyl)ethyl]{3-[(4-methylphenyl)methyl](1,2,4-thiadiazol-5-yl)}amine]",D (D=>20 uM),
"CC(C)(CNc1nc(CC(O)CO)ns1)c1ccc(F)cc1 (centres unmarked) [3-(5-{[2-(4-fluorophenyl)-2-methylpropyl]amino}-1,2,4-thiadiazol-3-yl)propane-1,2-diol]",B (B=1-10 uM),
"CC(C)(CNc1nc(CNC(=O)CO)ns1)c1ccc(F)cc1 [N-[(5-{[2-(4-fluorophenyl)-2-methylpropyl]amino}(1,2,4-thiadiazol-3-yl))methyl]-2-hydroxyacetamide]",B (B=1-10 uM),
"CC(C)(CNc1nc(Cc2cccc(O)c2)ns1)c1ccc(Cl)cc1 [3-[(5-{[2-(4-chlorophenyl)-2-methylpropyl]amino}-1,2,4-thiadiazol-3-yl)methyl]phenol]",A (A=<1 uM),
"COC(=O)CNc1nc(-c2cccc(C#N)c2)ns1 [methyl 2-{[3-(3-cyanophenyl)-1,2,4-thiadiazol-5-yl]amino}acetate]",D (D=>20 uM),
"CN(C)C(=O)c1cccc(-c2nsc(NCC(C)(C)c3ccc(F)cc3)n2)c1 [[3-(5-{[2-(4-fluorophenyl)-2-methylpropyl]amino}(1,2,4-thiadiazol-3-yl))phenyl]-N,N-dimethylcarboxamide]",B (B=1-10 uM),
"COC(=O)c1ccc(F)c(-c2nnc(NC[C@]3(c4ncccc4F)C[C@H](F)C3)s2)c1 [methyl 4-fluoro-3-(5-((3-fluoro-1-(3-fluoropyridin-2-yl)cyclobutyl)methylamino)-1,3,4-thiadiazol-2-yl)benzoate]",,Mean AC1.4 (Table 3): B (B=1-10 uM)
CC(C)(CNc1nc2c(C#N)cccc2s1)c1ccc(F)cc1 [2-(2-(4-fluorophenyl)-2-methylpropylamino)benzo[d] thiazole-4-carbonitrile],,Mean AC1.4 (Table 4): A (A=<1 uM)
NC(=O)c1ccc(Cl)c2nc(NC[C@]3(c4ncccc4F)C[C@H](F)C3)sc12 [4-chloro-2-((3-fluoro-1-(3-fluoropyridin-2-yl)cyclobutyl)methylamino)benzo[d] thiazole-7-carboxamide],,Mean AC1.4 (Table 4): B (B=1-10 uM)
"COc1cccc(Cc2nsc(NCCc3ccccc3Cl)n2)c1 [[2-(2-chlorophenyl)ethyl]{3-[(3-methoxyphenyl)methyl](1,2,4-thiadiazol-5-yl)}amine]",D (D=>20 uM),
Fc1cccnc1C1(CNc2nc3ccc(Cl)cc3s2)CCC1 [6-chloro-N-((1-(3-fluoropyridin-2-yl)cyclobutyl)methyl)benzo[d] thiazol-2-amine],,Mean AC1.4 (Table 4): B (B=1-10 uM)
CC(C)(CNc1nc2cccc(C(N)=O)c2s1)c1ccc(F)cc1 [2-(2-(4-fluorophenyl)-2-methylpropylamino)benzo[d] thiazole-7-carboxamide],,Mean AC1.4 (Table 4): B (B=1-10 uM)
"CC(CNc1nc(Cc2ccc(F)cc2)ns1)c1ccc(Cl)cc1 (centres unmarked) [[2-(4-chlorophenyl)propyl]{3-[(4-fluorophenyl)methyl](1,2,4-thiadiazol-5-yl)}amine]",B (B=1-10 uM),
"CC(C)(CNc1nc(-c2ccc(O)cc2Cl)ns1)c1ccc(F)cc1 [3-chloro-4-(5-{[2-(4-fluorophenyl)-2-methylpropyl]amino}(1,2,4-thiadiazol-3-yl))phenol]",A (A=<1 uM),
"Fc1ccc(Br)cc1-c1nnc(NC2(c3ncccc3F)CCC2)[nH]1 [5-(5-bromo-2-fluorophenyl)-N-(1-(3-fluoropyridin-2-yl)cyclobutyl)-4H-1,2,4-triazol-3-amine]",,Mean AC1.4 (Table 5): D (D=>20 uM)
"NC(=O)c1cccc(-c2nnc(NC[C@]3(c4ncccc4F)C[C@H](F)C3)s2)c1 [3-(5-(((trans)-3-fluoro-1-(3-fluoropyridin-2-yl)cyclobutyl)methylamino)-1,3,4-thiadiazol-2-yl)benzamide]",,Mean AC1.4 (Table 3): B (B=1-10 uM)
"CN(C)CCN(C)c1nsc(NCC(C)(C)c2ccc(F)cc2)n1 [[2-(dimethylamino)ethyl](5-{[2-(4-fluorophenyl)-2-methylpropyl]amino}(1,2,4-thiadiazol-3-yl))methylamine]",D (D=>20 uM),
"N#Cc1ccc(-c2nnc(NC[C@]3(c4ncccc4F)C[C@H](F)C3)s2)s1 [5-(5-((3-fluoro-1-(3-fluoropyridin-2-yl)cyclobutyl)methylamino)-1,3,4-thiadiazol-2-yl)thiophene-2-carbonitrile]",,Mean AC1.4 (Table 3): D (D=>20 uM)

Compound,Mean AC1.4 (Table 2),further results
"Fc1ccc(Cc2nsc(NCCc3ccc(Cl)cc3)n2)cc1 [[2-(4-chlorophenyl)ethyl]{3-[(4-fluorophenyl)methyl](1,2,4-thiadiazol-5-yl)}amine]",B (B=1-10 uM),
"Fc1ccc(CCNc2nc(Cc3ccc(F)cc3)ns2)cc1 [[2-(4-fluorophenyl)ethyl]{3-[(4-fluorophenyl)methyl](1,2,4-thiadiazol-5-yl)}amine]",B (B=1-10 uM),
COc1ccc(C2(CNc3nc4ccc(C(N)=O)cc4s3)CCC2)nc1 [2-((1-(5-methoxypyridin-2-yl)cyclobutyl)methylamino)benzo[d] thiazole-6-carboxamide],,Mean AC1.4 (Table 4): C (C=10-20 uM)
"COC/C=C/c1nsc(NCC(C)(C)c2ccc(F)cc2)n1 [[3-((1E)-3-methoxyprop-1-enyl)(1,2,4-thiadiazol-5-yl)][2-(4-fluorophenyl)-2-methylpropyl]amine]",B (B=1-10 uM),
"COc1cncc(-c2nsc(NCC(C)(C)c3ccc(F)cc3)n2)c1 [[2-(4-fluorophenyl)-2-methylpropyl][3-(5-methoxy(3-pyridyl))(1,2,4-thiadiazol-5-yl)]amine]",B (B=1-10 uM),
"COC(=O)N1CCN(CCc2nsc(NCC(C)(C)c3ccc(F)cc3)n2)CC1 [methyl 4-[2-(5-{[2-(4-fluorophenyl)-2-methylpropyl]amino}-1,2,4-thiadiazol-3-yl)ethyl]piperazinecarboxylate]",D (D=>20 uM),
"CC(C)(CNc1nc(CCC(=O)N2CC[C@@H](O)C2)ns1)c1ccc(F)cc1 [1-((3R)-3-hydroxypyrrolidinyl)-3-(5-{[2-(4-fluorophenyl)-2-methylpropyl]amino}(1,2,4-thiadiazol-3-yl))propan-1-one]",D (D=>20 uM),
"COc1cccc(Cc2nsc(NCCc3ccc(S(N)(=O)=O)cc3)n2)c1 [4-[2-({3-[(3-methoxyphenyl)methyl]-1,2,4-thiadiazol-5-yl}amino)ethyl]benzenesulfonamide]",D (D=>20 uM),
Fc1cccnc1C1(CNc2nc(-c3ccccc3)co2)CCC1 [N-((1-(3-fluoropyridin-2-yl)cyclobutyl)methyl)-4-phenyloxazol-2-amine],,Mean AC1.4 (Table 5): D (D=>20 uM)
"Fc1cccnc1C1(CNc2nnc(-c3ccccc3Cl)s2)CCC1 [5-(2-chlorophenyl)-N-((1-(3-fluoropyridin-2-yl)cyclobutyl)methyl)-1,3,4-thiadiazol-2-amine]",,Mean AC1.4 (Table 3): A (A=<1 uM)
"Clc1ccc(Cc2nsc(NCCc3ccc(Cl)c(Cl)c3)n2)cc1 [[2-(3,4-dichlorophenyl)ethyl]{3-[(4-chlorophenyl)methyl](1,2,4-thiadiazol-5-yl)}amine]",C (C=10-20 uM),
NC(=O)c1ccc2nc(NCCc3ccc(F)cc3)sc2c1 [2-(4-fluorophenethylamino)benzo[d] thiazole-6-carboxamide],,Mean AC1.4 (Table 4): B (B=1-10 uM)
"CC(C)(CNc1nc(CCCNS(C)(=O)=O)ns1)c1ccc(F)cc1 [[3-(5-{[2-(4-fluorophenyl)-2-methylpropyl]amino}(1,2,4-thiadiazol-3-yl))propyl](methylsulfonyl)amine]",B (B=1-10 uM),
"CSc1ncc(C)c(-c2nnc(NC[C@]3(c4ncccc4F)C[C@H](F)C3)s2)n1 [N-((3-fluoro-1-(3-fluoropyridin-2-yl)cyclobutyl)methyl)-5-(5-methyl-2-(methylthio)pyrimidin-4-yl)-1,3,4-thiadiazol-2-amine]",,Mean AC1.4 (Table 3): B (B=1-10 uM)
"Cn1nc(NC2(c3ncccc3F)CCC2)nc1-c1cc(C#N)ccc1F [4-fluoro-3-(5-(1-(3-fluoropyridin-2-yl)cyclobutylamino)-2-methyl-2H-1,2,4-triazol-3-yl)benzonitrile]",,Mean AC1.4 (Table 5): D (D=>20 uM)
"COc1cccc(Cc2nsc(Nc3ccc(Cl)c(Cl)c3)n2)c1 [(3,4-dichlorophenyl){3-[(3-methoxyphenyl)methyl](1,2,4-thiadiazol-5-yl)}amine]",D (D=>20 uM),
"CC(C)(CNc1nc(-c2cccnc2)ns1)c1ccc(F)cc1 [[2-(4-fluorophenyl)-2-methylpropyl](3-(3-pyridyl)(1,2,4-thiadiazol-5-yl))amine]",B (B=1-10 uM),
